Test results: the NIST ThermoML archive (doi:10.1021/je050544m)
± gives the expanded uncertainty stated by the source.

Experiment: activity coefficient (dimensionless); of the first substance listed, at infinite dilution; xn = mol fraction of the nth substance listed
Details: 101 kPa, Liquid, x1 = 0

Compound	activity coefficient (303 K, Chromatography)	activity coefficient (323 K, Chromatography)	activity coefficient (343 K, Chromatography)	activity coefficient (303 K, Differential ebulliometry)	activity coefficient (323 K, Differential ebulliometry)	activity coefficient (343 K, Differential ebulliometry)
CC(C)CC(C)(C)C [2,2,4-trimethylpentane] + CCCCn1cc[n+](C)c1.F[B-](F)(F)F	145 ± 15	127 ± 13	125 ± 13	–	–	–
CO [methanol] + CCCCCCn1cc[n+](C)c1.F[B-](F)(F)F	1.19 ± 0.12	1.08 ± 0.11	0.99 ± 0.1	–	–	–
CC(C)=O [acetone] + CCn1cc[n+](C)c1.F[B-](F)(F)F	–	1.11 ± 0.11	1.14 ± 0.12	–	–	–
C=CCCCC [hex-1-ene] + CCn1cc[n+](C)c1.F[B-](F)(F)F	46.2 ± 4.9	43.2 ± 4.5	36.6 ± 3.9	–	–	–
ClC(Cl)Cl [trichloromethane] + CCn1cc[n+](C)c1.F[B-](F)(F)F	–	0.73 ± 0.08	0.84 ± 0.09	–	–	–
CC(C)CC(C)(C)C [2,2,4-trimethylpentane] + CCCCCCCC[n+]1ccn(C)c1.F[B-](F)(F)F	–	17.7 ± 1.9	17 ± 1.8	–	–	–
CCOCC [diethyl ether] + CCCCCCCC[n+]1ccn(C)c1.F[B-](F)(F)F	–	3.2 ± 0.34	3.39 ± 0.36	–	–	–
CCCCCC [hexane] + CCCCCCn1cc[n+](C)c1.F[B-](F)(F)F	34.8 ± 3.7	29.6 ± 3.1	26.1 ± 2.7	–	–	–
CCc1ccccc1 [ethylbenzene] + CCCCCCCC[n+]1ccn(C)c1.F[B-](F)(F)F	–	2.35 ± 0.25	2.66 ± 0.28	–	–	–
CCCO [propan-1-ol] + CCn1cc[n+](C)c1.F[B-](F)(F)F	–	0.95	0.87	–	–	–
Cc1ccccc1 [toluene] + CCCCCCn1cc[n+](C)c1.F[B-](F)(F)F	–	–	2.61 ± 0.27	–	–	–
CCCCCC [hexane] + CCCCCCCC[n+]1ccn(C)c1.F[B-](F)(F)F	13.2 ± 1.4	12.8 ± 1.4	12.2 ± 1.3	–	–	–
ClCCCl [1,2-dichloroethane] + CCCCCCn1cc[n+](C)c1.F[B-](F)(F)F	–	1.06 ± 0.11	1.19 ± 0.12	–	–	–
CCOC(C)=O [ethyl acetate] + CCCCCCCC[n+]1ccn(C)c1.F[B-](F)(F)F	–	1.55 ± 0.16	1.62 ± 0.17	–	–	–
ClCCCl [1,2-dichloroethane] + CCCCn1cc[n+](C)c1.F[B-](F)(F)F	–	1.51 ± 0.16	1.63 ± 0.17	–	–	–
C1CCCCC1 [cyclohexane] + CCCCn1cc[n+](C)c1.F[B-](F)(F)F	44.9 ± 4.7	38.4 ± 4	32.8 ± 3.5	–	–	–
CCC(C)=O [butanone] + CCn1cc[n+](C)c1.F[B-](F)(F)F	–	1.66 ± 0.17	1.77 ± 0.18	–	–	–
c1ccccc1 [benzene] + CCCCn1cc[n+](C)c1.F[B-](F)(F)F	2.39 ± 0.25	2.43 ± 0.26	2.48 ± 0.26	–	–	–
CCOCC [diethyl ether] + CCCCCCn1cc[n+](C)c1.F[B-](F)(F)F	–	–	2.53 ± 0.27	–	–	–
c1ccccc1 [benzene] + CCCCCCn1cc[n+](C)c1.F[B-](F)(F)F	1.63 ± 0.17	1.65 ± 0.17	1.68 ± 0.18	–	–	–
Cc1ccccc1 [toluene] + CCCCn1cc[n+](C)c1.F[B-](F)(F)F	–	4.14 ± 0.44	4.13 ± 0.43	–	–	–
C=CCCCC [hex-1-ene] + CCCCn1cc[n+](C)c1.F[B-](F)(F)F	35.4 ± 3.7	32.2 ± 3.4	30.5 ± 3.2	–	–	–

Compound	activity coefficient (303 K, Chromatography)	activity coefficient (323 K, Chromatography)	activity coefficient (343 K, Chromatography)	activity coefficient (303 K, Differential ebulliometry)	activity coefficient (323 K, Differential ebulliometry)	activity coefficient (343 K, Differential ebulliometry)
CO [methanol] + CCCCCCCC[n+]1ccn(C)c1.F[B-](F)(F)F	1.09 ± 0.11	0.94 ± 0.1	0.85 ± 0.09	–	–	–
CCC(C)=O [butanone] + CCCCn1cc[n+](C)c1.F[B-](F)(F)F	–	1.64 ± 0.17	1.72 ± 0.18	–	–	–
CCc1ccccc1 [ethylbenzene] + CCCCCCn1cc[n+](C)c1.F[B-](F)(F)F	–	3.63 ± 0.38	4.05 ± 0.43	–	–	–
CCCO [propan-1-ol] + CCCCCCn1cc[n+](C)c1.F[B-](F)(F)F	–	1.86 ± 0.19	1.63 ± 0.17	–	–	–
CO [methanol] + CCCCn1cc[n+](C)c1.F[B-](F)(F)F	1.32 ± 0.14	1.21 ± 0.12	1.07 ± 0.11	–	–	–
ClC(Cl)(Cl)Cl [tetrachloromethane] + CCCCCCCC[n+]1ccn(C)c1.F[B-](F)(F)F	–	2.39 ± 0.25	2.62 ± 0.28	–	–	–
CC(C)=O [acetone] + CCCCn1cc[n+](C)c1.F[B-](F)(F)F	–	1.05 ± 0.11	1.11 ± 0.11	–	–	–
CC(C)=O [acetone] + CCCCCCCC[n+]1ccn(C)c1.F[B-](F)(F)F	–	0.78 ± 0.08	0.83 ± 0.09	–	–	–
C1CCCCC1 [cyclohexane] + CCCCCCn1cc[n+](C)c1.F[B-](F)(F)F	–	–	–	18.6 ± 1.9	16.5 ± 1.6	15.2 ± 1.5
C=CCCCC [hex-1-ene] + CCCCCCn1cc[n+](C)c1.F[B-](F)(F)F	15.9 ± 1.7	14.8 ± 1.6	14.8 ± 1.6	–	–	–
CCOC(C)=O [ethyl acetate] + CCn1cc[n+](C)c1.F[B-](F)(F)F	–	3.08 ± 0.32	3.32 ± 0.35	–	–	–
CC(C)O [propan-2-ol] + CCn1cc[n+](C)c1.F[B-](F)(F)F	–	1.05 ± 0.11	1.01 ± 0.1	–	–	–
ClCCCl [1,2-dichloroethane] + CCCCCCCC[n+]1ccn(C)c1.F[B-](F)(F)F	–	0.93 ± 0.09	0.95 ± 0.1	–	–	–
ClCCCl [1,2-dichloroethane] + CCn1cc[n+](C)c1.F[B-](F)(F)F	–	1.32 ± 0.14	1.37 ± 0.14	–	–	–
C=CCCCC [hex-1-ene] + CCCCCCCC[n+]1ccn(C)c1.F[B-](F)(F)F	7.92 ± 0.83	7.51 ± 0.79	7.42 ± 0.78	–	–	–
CCC(C)=O [butanone] + CCCCCCCC[n+]1ccn(C)c1.F[B-](F)(F)F	–	1.01 ± 0.1	1.04 ± 0.11	–	–	–
CCO [ethanol] + CCCCCCn1cc[n+](C)c1.F[B-](F)(F)F	–	1.47 ± 0.15	1.31 ± 0.13	–	–	–
CC(C)CC(C)(C)C [2,2,4-trimethylpentane] + CCCCCCn1cc[n+](C)c1.F[B-](F)(F)F	54.1 ± 5.7	–	44.5 ± 4.7	–	–	–
CCc1ccccc1 [ethylbenzene] + CCCCn1cc[n+](C)c1.F[B-](F)(F)F	–	6.65 ± 0.7	7.2 ± 0.76	–	–	–
Cc1ccccc1 [toluene] + CCCCCCCC[n+]1ccn(C)c1.F[B-](F)(F)F	–	1.75 ± 0.18	1.82 ± 0.19	–	–	–
CCCCCC [hexane] + CCCCn1cc[n+](C)c1.F[B-](F)(F)F	93.4 ± 9.8	76.5 ± 8.1	67.5 ± 7.1	–	–	–
CCCCCCC [heptane] + CCCCCCCC[n+]1ccn(C)c1.F[B-](F)(F)F	16.7 ± 1.8	16.3 ± 1.7	15.2 ± 1.6	–	–	–

Compound	activity coefficient (303 K, Chromatography)	activity coefficient (323 K, Chromatography)	activity coefficient (343 K, Chromatography)	activity coefficient (303 K, Differential ebulliometry)	activity coefficient (323 K, Differential ebulliometry)	activity coefficient (343 K, Differential ebulliometry)
ClC=C(Cl)Cl [trichloroethene] + CCCCn1cc[n+](C)c1.F[B-](F)(F)F	–	3.98 ± 0.42	4.32 ± 0.45	–	–	–
CCO [ethanol] + CCCCn1cc[n+](C)c1.F[B-](F)(F)F	–	1.91 ± 0.2	1.63 ± 0.17	–	–	–
CCOC(C)=O [ethyl acetate] + CCCCn1cc[n+](C)c1.F[B-](F)(F)F	–	2.86 ± 0.3	2.99 ± 0.31	–	–	–
CCc1ccccc1 [ethylbenzene] + CCn1cc[n+](C)c1.F[B-](F)(F)F	–	7.05 ± 0.74	6.87 ± 0.72	–	–	–
C1CCCCC1 [cyclohexane] + CCCCCCCC[n+]1ccn(C)c1.F[B-](F)(F)F	8.52 ± 0.9	7.99 ± 0.84	7.36 ± 0.77	–	–	–
CCC(C)=O [butanone] + CCCCCCn1cc[n+](C)c1.F[B-](F)(F)F	–	1.14 ± 0.12	1.21 ± 0.12	–	–	–
CCCO [propan-1-ol] + CCCCCCCC[n+]1ccn(C)c1.F[B-](F)(F)F	–	1.44 ± 0.15	1.27 ± 0.13	–	–	–
CCOCC [diethyl ether] + CCCCn1cc[n+](C)c1.F[B-](F)(F)F	–	–	8.05 ± 0.85	–	–	–
CCO [ethanol] + CCCCCCCC[n+]1ccn(C)c1.F[B-](F)(F)F	–	1.24 ± 0.13	1.1 ± 0.11	–	–	–
ClC(Cl)Cl [trichloromethane] + CCCCCCn1cc[n+](C)c1.F[B-](F)(F)F	–	0.81 ± 0.08	0.92 ± 0.09	–	–	–
CO [methanol] + CCn1cc[n+](C)c1.F[B-](F)(F)F	0.43 ± 0.05	0.43 ± 0.05	0.42 ± 0.05	–	–	–
CCO [ethanol] + CCn1cc[n+](C)c1.F[B-](F)(F)F	–	0.76 ± 0.08	–	–	–	–
CC(C)O [propan-2-ol] + CCCCn1cc[n+](C)c1.F[B-](F)(F)F	–	2.47 ± 0.11	2.17 ± 0.1	–	–	–
ClC=C(Cl)Cl [trichloroethene] + CCCCCCn1cc[n+](C)c1.F[B-](F)(F)F	–	–	2.53 ± 0.27	–	–	–
CC(C)O [propan-2-ol] + CCCCCCn1cc[n+](C)c1.F[B-](F)(F)F	–	1.61 ± 0.17	1.57 ± 0.16	–	–	–
c1ccccc1 [benzene] + CCn1cc[n+](C)c1.F[B-](F)(F)F	2.42 ± 0.25	2.51 ± 0.26	2.47 ± 0.26	–	–	–
c1ccccc1 [benzene] + CCCCCCCC[n+]1ccn(C)c1.F[B-](F)(F)F	1.28 ± 0.13	1.29 ± 0.13	1.29 ± 0.13	–	–	–
CCCCCCC [heptane] + CCCCCCn1cc[n+](C)c1.F[B-](F)(F)F	47.7 ± 5	39.9 ± 4.2	33.6 ± 3.5	–	–	–
C1CCCCC1 [cyclohexane] + CCn1cc[n+](C)c1.F[B-](F)(F)F	53.7 ± 5.7	46.2 ± 4.9	38.9 ± 4.1	–	–	–
ClC=C(Cl)Cl [trichloroethene] + CCn1cc[n+](C)c1.F[B-](F)(F)F	–	3.66 ± 0.38	3.79 ± 0.4	–	–	–
